Legend:
Assay in all cases: Antifungal growth assay in potato dextrose broth, 24-well
Assay type in all cases: cell-based
Parameters in all cases: key: NI, no inhibition; p (partial), at least 50% inhibited
Phoma chrysamthecola = conditions: five day results
Experimental: (§1) Fungi to be tested were propagated on potato dextrose agar (PDA) plates at room temperature. Stock solutions of pseudomycins and depsipeptide were suspended in dimethylsulfoxide (DMSO) (Sigma) at 5 mg/ml and stored at −20C. Serial dilutions of compounds were done the day of the experiment. All serial dilutions were made in DMSO. […] These are noted in the raw data section.
(§2) Assays were performed in 24-well cell culture clusters (Costar 3524), with 990 ul potato dextrose broth (PDB, Difco) and 10 ul of the compound to be tested in each well. Initial concentrations tested were 50-1.56 ug/ml (final concentration of pseudomycin). Actual concentrations of pseudomycins tested were 50, 25, 12.5, 6.25, 3.12 and 1.56 ug/ml. Each well was inoculated with the appropriate fungus. Unless noted, the fungal inoculum consisted of an ˜4 mm^2 piece of PDA with fungal mycelium. The exceptions were as follows. Ustilago maydis: this fungus grows much like a yeast on PDA, and cells were scraped from the PDA stock plate, resuspended in PDB and 10 ul inoculum added to each well. Monilinia sp.: this fungal mycelium grows as a very loose sheet on top of PDA and would not adhere to agar blocks. Fungal mycelium was ground with a metal rod in 500 ul PDB and 10 ul inoculum was added to each well. Mycosphaeella fijiensis, Septoria passerinii, Septoria triticii: these fungi all grow very slowly and the results were difficult to score if a small piece of agar with fungal mycelium on it was used as an inoculum. For these fungi, the mycelium was ground with a metal rod in 500 ul PDB and 10 ul inoculum was added to each well.
(§3) Wells were scored for fungal growth at two days and five days. Some slow growing fungi were scored at later days for growth because assessment was not possible at two or five days. Growth was scored by comparison to a control consisting of fungus inoculated into 990 ul potato dextrose broth and 10 ul of DMSO (Dimethylsulfoxide). An additional control consisting of fungal inoculum in PDB only was performed to ensure that the DMSO was not inhibitory to fungal growth.
(§4) For assays that were repeated, new stock solutions were made from a second shipment of pseudomycins. Note that pseudomycin B′ and depsipeptide stock solutions were remade from first shipment materials because these were not included in the second shipment. […] Actual concentrations of pseudomycins tested were 2, 1, 0.5, 0.25, 0.125 and 0.0625 ug/ml. A-PO4 and A-FB=pseudomycin A phosphate salt and free base respectively.
(§5) Table 2: Two day results—concentration indicated is lowest level of compound (ug /ml) that results is no growth. NI, no inhibition; p (partial), at least 50% inhibited; -, not determined. If number of assays was greater than one, number of assays performed on the fungus is noted in parentheses. For several slow-growing fungi, days elapsed before observation (if different than two) are noted.
(§6) Table 3: Five day results—concentration indicated is lowest level of compound (ug /ml) that results in no growth. NI, no inhibition; p (partial), at least 50% inhibited; -, not performed on the fungus is noted in parentheses. For several slow-growing fungi, days elapsed before observation (if different than five) are noted.

Drechslera teres = test system: Drechslera teres
Experimental: as §1, §2, §3, §4, §5, §6

Phytophthora ultimum = test system: Phytophthora ultimum
Experimental: as §1, §2, §3, §4, §5, §6

Phytophthora cactorum = test system: Phytophthora cactorum
Experimental: as §1, §2, §3, §4, §5, §6

Tapesia yallundae = conditions: 2x assays
Experimental: as §1, §2, §3, §4, §5, §6

Botrytis alli = conditions: 2x assays
Experimental: as §1, §2, §3, §4, §5, §6

Tapesia acuformis = conditions: 2x assays
Experimental: as §1, §2, §3, §4, §5, §6

Fusarium solani = test system: Fusarium solani
Experimental: as §1, §2, §3, §4, §5, §6

Bipolaris sorokiniana = test system: Bipolaris sorokiniana
Experimental: as §1, §2, §3, §4, §5, §6

Alternaria helianthi = conditions: 2x assays
Experimental: as §1, §2, §3, §4, §5, §6

Stagonospora nodorum = test system: Stagonospora nodorum
Experimental: as §1, §2, §3, §4, §5, §6

Phytophthora cinnemani = test system: Phytophthora cinnemani
Experimental: as §1, §2, §3, §4, §5, §6

Sclerotinia sclerotiorum = conditions: 2x assays
Experimental: as §1, §2, §3, §4, §5, §6

Verticillium dahliae = conditions: 2x assays
Experimental: as §1, §2, §3, §4, §5, §6

Aphanomyces sp. = conditions: 2x assays
Experimental: as §1, §2, §3, §4, §5, §6

Fusarium culmorum = test system: Fusarium culmorum
Experimental: as §1, §2, §3, §4, §5, §6

Phyllosticta maydis = test system: Phyllosticta maydis
Experimental: as §1, §2, §3, §4, §5, §6

Phytophthora parasitica = test system: Phytophthora parasitica
Experimental: as §1, §2, §3, §4, §5, §6

[1] = test system: Fusarium oxysporum cubense
Experimental: as §1, §2, §3, §4, §5, §6

| Substance | lowest level of compound that results in no growth (Phoma chrysamthecola) | lowest level of compound that results in no growth (Drechslera teres; five day results) | lowest level of compound that results in no growth (Drechslera teres; two day results) | lowest level of compound that results in no growth (Phytophthora ultimum; five day results) | lowest level of compound that results in no growth (Phytophthora ultimum; two day results) | lowest level of compound that results in no growth (Phytophthora cactorum; five day results) | lowest level of compound that results in no growth (Phytophthora cactorum; two day results) | lowest level of compound that results in no growth (Tapesia yallundae; five day results) | lowest level of compound that results in no growth (Tapesia yallundae; two day results) | lowest level of compound that results in no growth (Botrytis alli; five day results) | lowest level of compound that results in no growth (Botrytis alli; two day results) | lowest level of compound that results in no growth (Tapesia acuformis; five day results) | lowest level of compound that results in no growth (Tapesia acuformis; two day results) | lowest level of compound that results in no growth (Fusarium solani; five day results) | lowest level of compound that results in no growth (Fusarium solani; two day results) | lowest level of compound that results in no growth (Bipolaris sorokiniana; five day results) | lowest level of compound that results in no growth (Bipolaris sorokiniana; two day results) | lowest level of compound that results in no growth (Alternaria helianthi; five day results) | lowest level of compound that results in no growth (Alternaria helianthi; two day results) | lowest level of compound that results in no growth (Stagonospora nodorum; five day results) | other results |
| --- | --- | --- | --- | --- | --- | --- | --- | --- | --- | --- | --- | --- | --- | --- | --- | --- | --- | --- | --- | --- | --- |
| Pseudomycin B | p at 50 | NI | NI | NI | NI | NI | NI | NI | 25 µg/mL | NI | NI | NI | NI | NI | p at 50 | NI | NI | 50 µg/mL | NI | NI | lowest level of compound that results in no growth (Stagonospora nodorum; two day results): NI; lowest level of compound that results in no growth (Phytophthora cinnemani; five day results): NI; lowest level of compound that results in no growth (Phytophthora cinnemani; two day results): NI; lowest level of compound that results in no growth (Sclerotinia sclerotiorum; five day results): NI; lowest level of compound that results in no growth (Sclerotinia sclerotiorum; two day results): p at 50; lowest level of compound that results in no growth (Verticillium dahliae; five day results): p at 50; lowest level of compound that results in no growth (Verticillium dahliae; two day results): 25 µg/mL; lowest level of compound that results in no growth (Aphanomyces sp.; five day results): 50 µg/mL; lowest level of compound that results in no growth (Aphanomyces sp.; two day results): p at 50; lowest level of compound that results in no growth (Fusarium culmorum; five day results): NI; lowest level of compound that results in no growth (Fusarium culmorum; two day results): NI; lowest level of compound that results in no growth (Phyllosticta maydis; five day results): 50 µg/mL; lowest level of compound that results in no growth (Phyllosticta maydis; two day results): 50 µg/mL; lowest level of compound that results in no growth (Phytophthora parasitica; five day results): NI; lowest level of compound that results in no growth (Phytophthora parasitica; two day results): NI; lowest level of compound that results in no growth ([1]; five day results): NI; lowest level of compound that results in no growth ([1]; two day results): NI |
| Pseudomycin B′ | p at 50 | NI | NI | NI | NI | NI | NI | 50 µg/mL | 6.25 µg/mL | NI | NI | NI | NI | NI | NI | NI | NI | 25 µg/mL | 25 µg/mL | NI | lowest level of compound that results in no growth (Stagonospora nodorum; two day results): NI; lowest level of compound that results in no growth (Phytophthora cinnemani; five day results): NI; lowest level of compound that results in no growth (Phytophthora cinnemani; two day results): NI; lowest level of compound that results in no growth (Sclerotinia sclerotiorum; five day results): NI; lowest level of compound that results in no growth (Sclerotinia sclerotiorum; two day results): NI; lowest level of compound that results in no growth (Verticillium dahliae; five day results): NI; lowest level of compound that results in no growth (Verticillium dahliae; two day results): NI; lowest level of compound that results in no growth (Aphanomyces sp.; five day results): NI; lowest level of compound that results in no growth (Aphanomyces sp.; two day results): 25 µg/mL; lowest level of compound that results in no growth (Fusarium culmorum; five day results): NI; lowest level of compound that results in no growth (Fusarium culmorum; two day results): NI; lowest level of compound that results in no growth (Phyllosticta maydis; five day results): NI; lowest level of compound that results in no growth (Phyllosticta maydis; two day results): p at 50; lowest level of compound that results in no growth (Phytophthora parasitica; five day results): NI; lowest level of compound that results in no growth (Phytophthora parasitica; two day results): NI; lowest level of compound that results in no growth ([1]; five day results): NI; lowest level of compound that results in no growth ([1]; two day results): NI |
| Pseudomycin C | NI | NI | NI | NI | NI | NI | NI | NI | 25 µg/mL | NI | NI | NI | NI | NI | p at 50 | NI | NI | NI | p at 50 | NI | lowest level of compound that results in no growth (Stagonospora nodorum; two day results): NI; lowest level of compound that results in no growth (Phytophthora cinnemani; five day results): NI; lowest level of compound that results in no growth (Phytophthora cinnemani; two day results): NI; lowest level of compound that results in no growth (Sclerotinia sclerotiorum; five day results): NI; lowest level of compound that results in no growth (Sclerotinia sclerotiorum; two day results): NI; lowest level of compound that results in no growth (Verticillium dahliae; five day results): p at 50; lowest level of compound that results in no growth (Verticillium dahliae; two day results): 25 µg/mL; lowest level of compound that results in no growth (Aphanomyces sp.; five day results): 50 µg/mL; lowest level of compound that results in no growth (Aphanomyces sp.; two day results): 25 µg/mL; lowest level of compound that results in no growth (Fusarium culmorum; five day results): NI; lowest level of compound that results in no growth (Fusarium culmorum; two day results): NI; lowest level of compound that results in no growth (Phyllosticta maydis; five day results): NI; lowest level of compound that results in no growth (Phyllosticta maydis; two day results): p at 50; lowest level of compound that results in no growth (Phytophthora parasitica; five day results): NI; lowest level of compound that results in no growth (Phytophthora parasitica; two day results): NI; lowest level of compound that results in no growth ([1]; five day results): NI; lowest level of compound that results in no growth ([1]; two day results): NI |

Reference: patent US7326689B2, “Pseudomycins useful against plant diseases” (Eli Lilly and Company, priority 2000, dated 2008)
